# From ChEMBL document CHEMBL4251678, “Coculture of Two Developmental Stages of a Marine-Derived Aspergillus alliaceus Results in the Production of the Cytotoxic Bianthrone Allianthrone A” (J Nat Prod, 2018)
# Calls of active or inactive are those of the source. The calls are words filed in the database; no cut-off is given here.
# Columns and labels:
# SK-MEL-5 [1] = experiment: Cytotoxicity against human SK-MEL-5 cells assessed as reduction in cell viability after 48 hrs by MTT assay; type: functional, cell-based; conditions: SK-MEL-5, 48 h
# HCT-116 [2] = experiment: Cytotoxicity against human HCT116 cells assessed as reduction in cell viability after 48 hrs by MTT assay; type: functional, cell-based; conditions: HCT-116, 48 h
# A549 [3] = experiment: Cytotoxicity against human A549 cells assessed as reduction in cell viability after 48 hrs by MTT assay; type: functional, cell-based; conditions: A549, 48 h
# PC-3 [4] = experiment: Cytotoxicity against human PC3 cells assessed as reduction in cell viability after 48 hrs by MTT assay; type: functional, cell-based; conditions: PC-3, 48 h
# MCF7 [5] = experiment: Cytotoxicity against human MCF7 cells assessed as reduction in cell viability after 48 hrs by MTT assay; type: functional, cell-based; conditions: MCF7, 48 h
# Enterococcus faecium = experiment: Antimicrobial activity against Enterococcus faecium ATCC 49032 at 20.5 to 43.5 ug/ml by microbroth method; type: functional, organism-based
# Pseudomonas aeruginosa = experiment: Antimicrobial activity against Pseudomonas aeruginosa ATCC 15442 at 20.5 to 43.5 ug/ml by microbroth method; type: functional, organism-based
# Escherichia coli = experiment: Antimicrobial activity against Escherichia coli ATCC 8739 at 20.5 to 43.5 ug/ml by microbroth method; type: functional, organism-based
# Candida albicans = experiment: Antifungal activity against Candida albicans ATCC 90027 at 20.5 to 43.5 ug/ml by microbroth method; type: functional, organism-based
# Bacillus subtilis = experiment: Antimicrobial activity against Bacillus subtilis ATCC 49343 at 20.5 to 43.5 ug/ml by microbroth method; type: functional, organism-based
# Staphylococcus aureus = experiment: Antimicrobial activity against Staphylococcus aureus ATCC 25923 at 20.5 to 43.5 ug/ml by microbroth method; type: functional, organism-based
# SK-MEL-5 [6] = experiment: Cytotoxicity against human SK-MEL-5 cells assessed as cell survival at 250 uM after 48 hrs by MTT assay; type: functional; conditions: SK-MEL-5, 48 h, read-out: Survival
# HCT-116 [7] = experiment: Cytotoxicity against human HCT116 cells assessed as cell survival at 250 uM after 48 hrs by MTT assay; type: functional; conditions: HCT-116, 48 h, read-out: Survival
# A549 [8] = experiment: Cytotoxicity against human A549 cells assessed as cell survival at 250 uM after 48 hrs by MTT assay; type: functional; conditions: A549, 48 h, read-out: Survival
# PC-3 [9] = experiment: Cytotoxicity against human PC3 cells assessed as cell survival at 250 uM after 48 hrs by MTT assay; type: functional; conditions: PC-3, 48 h, read-out: Survival
# MCF7 [10] = experiment: Cytotoxicity against human MCF7 cells assessed as cell survival at 250 uM after 48 hrs by MTT assay; type: functional; conditions: MCF7, 48 h, read-out: Survival
Compound,IC50 (SK-MEL-5 [1]) [µM],IC50 (HCT-116 [2]) [µM],IC50 (A549 [3]) [µM],IC50 (PC-3 [4]) [µM],IC50 (MCF7 [5]) [µM],Activity (Enterococcus faecium),Activity (Pseudomonas aeruginosa),Activity (Escherichia coli),Activity (Candida albicans),Activity (Bacillus subtilis),Activity (Staphylococcus aureus),viability at 250 µM (SK-MEL-5 [6]) [%],viability at 250 µM (HCT-116 [7]) [%],viability at 250 µM (A549 [8]) [%],viability at 250 µM (PC-3 [9]) [%],viability at 250 µM (MCF7 [10]) [%]
COc1cc2c(c(O)c1Cl)C(=O)c1c(O)cc(C[C@H](C)O)cc1[C@@H]2[C@H]1c2cc(C[C@H](C)O)cc(O)c2C(=O)c2c1cc(OC)c(Cl)c2O,19.7,13.7,> 20,> 20,> 20,inactive,inactive,inactive,inactive,inactive,inactive,,,,,
COc1cc([C@@H]2c3cc4c(cc3[C@@H](O[C@@H]3O[C@@H]5CO[C@@H](C)O[C@H]5[C@H](O)[C@H]3O)[C@H]3COC(=O)[C@H]23)OCO4)cc(OC)c1O [ETOPOSIDE],,,,,,,,,,,,26.4,11.6,19.7,45.5,43.8
COc1cc2c(c(O)c1Cl)C(=O)c1c(O)cc(C[C@H](C)O)cc1[C@H]2[C@@H]1c2cc(C[C@H](C)O)cc(O)c2C(=O)c2c1cc(OC)c(Cl)c2O,12.2,10.5,> 20,> 20,> 20,inactive,inactive,inactive,inactive,inactive,inactive,,,,,
COc1cc2c(c(O)c1Cl)C(=O)c1c(O)cc(C[C@H](C)O)cc1[C@H]2[C@H]1c2cc(C[C@H](C)O)cc(O)c2C(=O)c2c1cc(OC)c(Cl)c2O,11,9,> 20,> 20,> 20,inactive,inactive,inactive,inactive,inactive,inactive,,,,,
